# Laboratory results taken from ChEMBL document CHEMBL4819048, “IDO1 and TDO inhibitory evaluation of analogues of the marine pyrroloiminoquinone alkaloids: Wakayin and Tsitsikammamines” (Bioorg Med Chem Lett, 2021).
# Legend:
# Type in all cases: cell-based
# [1] = target: Indoleamine 2,3-dioxygenase 1 (Homo sapiens) (UniProt P14902); assay: Inhibition of human IDO1 expressed in HEK293-EBNA cells assessed as reduction in kynurenine formation using tryptophan as substrate at 6.25 uM incubated for 24 hrs by HPLC analysis relative to control
# [2] = Cytotoxicity against human HEK293-EBNA cells assessed as cell viability at 12.5 uM by MTS/PMS assay; conditions: read-out: Activity
# [3] = Cytotoxicity against human HEK293-EBNA cells assessed as cell viability at 6.25 uM by MTS/PMS assay; conditions: read-out: Activity
# [4] = target: Tryptophan 2,3-dioxygenase (Homo sapiens) (UniProt P48775); assay: Inhibition of human TDO expressed in HEK293-EBNA cells assessed as reduction in kynurenine formation using tryptophan as substrate at 3.12 uM incubated for 24 hrs by HPLC analysis relative to control
# [5] = target: Tryptophan 2,3-dioxygenase (Homo sapiens) (UniProt P48775); assay: Inhibition of human TDO expressed in HEK293-EBNA cells assessed as reduction in kynurenine formation using tryptophan as substrate at 6.25 uM incubated for 24 hrs by HPLC analysis relative to control
# [6] = target: Tryptophan 2,3-dioxygenase (Homo sapiens) (UniProt P48775); assay: Inhibition of human TDO expressed in HEK293-EBNA cells assessed as reduction in kynurenine formation using tryptophan as substrate at 12.5 uM incubated for 24 hrs by HPLC analysis relative to control
# [7] = Cytotoxicity against human HEK293-EBNA cells assessed as cell viability at 3.12 uM by MTS/PMS assay; conditions: read-out: Activity
# [8] = target: Indoleamine 2,3-dioxygenase 1 (Homo sapiens) (UniProt P14902); assay: Inhibition of human IDO1 expressed in HEK293-EBNA assessed as reduction in kynurenine formation using tryptophan as substrate at 3.12 uM incubated for 24 hrs by HPLC analysis relative to control
# [9] = Cytotoxicity against human HEK293-EBNA cells assessed as cell viability at 25 uM by MTS/PMS assay; conditions: read-out: Activity
# [10] = target: Indoleamine 2,3-dioxygenase 1 (Homo sapiens) (UniProt P14902); assay: Inhibition of human IDO1 expressed in HEK293-EBNA cells assessed as reduction in kynurenine formation using tryptophan as substrate at 25 uM incubated for 24 hrs by HPLC analysis relative to control
# [11] = target: Tryptophan 2,3-dioxygenase (Homo sapiens) (UniProt P48775); assay: Inhibition of human TDO expressed in HEK293-EBNA cells assessed as reduction in kynurenine formation using tryptophan as substrate at 25 uM incubated for 24 hrs by HPLC analysis relative to control
# [12] = target: Indoleamine 2,3-dioxygenase 1 (Homo sapiens) (UniProt P14902); assay: Inhibition of human IDO1 expressed in HEK293-EBNA cells assessed as reduction in kynurenine formation using tryptophan as substrate at 12.5 uM incubated for 24 hrs by HPLC analysis relative to control
# Chain of Tryptophan 2,3-dioxygenase (Homo sapiens) (P48775 whole entry, looked up): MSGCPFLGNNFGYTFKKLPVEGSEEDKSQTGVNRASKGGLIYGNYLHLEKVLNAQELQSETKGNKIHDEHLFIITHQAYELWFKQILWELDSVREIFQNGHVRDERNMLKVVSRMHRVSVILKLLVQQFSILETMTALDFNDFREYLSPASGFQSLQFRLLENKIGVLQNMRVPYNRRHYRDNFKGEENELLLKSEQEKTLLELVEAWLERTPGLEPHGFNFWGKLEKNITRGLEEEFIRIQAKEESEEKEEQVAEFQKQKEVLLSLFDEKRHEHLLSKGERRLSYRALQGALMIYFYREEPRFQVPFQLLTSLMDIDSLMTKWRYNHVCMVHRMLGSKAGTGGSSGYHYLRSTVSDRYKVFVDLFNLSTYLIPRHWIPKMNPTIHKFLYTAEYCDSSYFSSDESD
# Chain of Indoleamine 2,3-dioxygenase 1 (Homo sapiens) (P14902 whole entry, looked up): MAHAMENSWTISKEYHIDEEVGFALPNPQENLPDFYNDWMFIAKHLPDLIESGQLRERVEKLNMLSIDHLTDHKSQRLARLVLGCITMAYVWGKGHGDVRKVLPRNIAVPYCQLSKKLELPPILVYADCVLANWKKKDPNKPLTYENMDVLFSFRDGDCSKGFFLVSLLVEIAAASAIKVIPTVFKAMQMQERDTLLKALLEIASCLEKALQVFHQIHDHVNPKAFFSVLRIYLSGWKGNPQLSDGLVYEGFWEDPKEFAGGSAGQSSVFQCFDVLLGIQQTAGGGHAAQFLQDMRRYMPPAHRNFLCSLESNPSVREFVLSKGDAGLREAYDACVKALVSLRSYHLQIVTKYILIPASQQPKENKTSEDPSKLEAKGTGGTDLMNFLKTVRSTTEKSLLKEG
inhibition [1],inhibition [4],inhibition [5],inhibition [6],inhibition [8],inhibition [10],inhibition [11],inhibition [12],Compound,viability at 12.5 µM [2],viability at 6.25 µM [3],viability at 3.12 µM [7],viability at 25 µM [9]
19%,10%,13%,18%,14%,23%,21%,22%,Cc1ccc(S(=O)(=O)n2cc3c4c2C(=O)c2c(-c5ccccc5)n[nH]c2C4=NCC3)cc1,123%,126%,91%,96%
-3%,-7%,-7%,-6%,0%,-3%,3%,-4%,Cc1ccc(S(=O)(=O)n2ccc3c2C(=O)c2[nH]cc4c2C3=NCC4)cc1,110%,98%,107%,115%
9%,-8%,-3%,0%,2%,11%,0%,13%,Cc1ccc(S(=O)(=O)n2ccc3c2C(=O)C(NCCc2c[nH]c4ccccc24)=CC3=O)cc1,99%,98%,98%,84%
–,–,–,–,–,–,–,–,Cc1ccc(S(=O)(=O)n2ccc3c2C(=O)c2c4c(cn2S(=O)(=O)c2ccc(C)cc2)CCN=C34)cc1,85%,88%,87%,67%
16%,3%,18%,21%,11%,36%,35%,23%,Cc1ccc(S(=O)(=O)n2cc3c4c2C(=O)c2c(cnn2C)C4=NCC3)cc1,77%,89%,93%,78%
9%,12%,14%,13%,10%,6%,7%,9%,Cc1ccc(S(=O)(=O)n2cc3c4c2C(=O)c2n[nH]cc2C4=NCC3)cc1,97%,91%,92%,91%
58%,15%,27%,55%,52%,61%,28%,62%,Cc1ccc(S(=O)(=O)n2ccc3c2C(=O)c2[nH]c(C(=O)c4ccccc4)c(C(=O)c4ccccc4)c2C3=O)cc1,102%,125%,99%,111%
12%,15%,19%,23%,10%,11%,15%,15%,Cc1ccc(S(=O)(=O)n2cc3c4c2C(=O)c2cn[nH]c2C4=NCC3)cc1,110%,106%,87%,93%
12%,2%,3%,0%,8%,27%,-3%,21%,Cc1ccc(S(=O)(=O)n2ccc3c2C(=O)c2c(c(-c4c[nH]c5ccccc45)cn2C)C3=O)cc1,96%,96%,98%,88%
12%,5%,5%,2%,10%,18%,-10%,16%,Cc1ccc(S(=O)(=O)n2cc3c4c2C(=O)c2[nH]nc(-c5ccccc5)c2C4=NCC3)cc1,79%,95%,91%,78%
4%,3%,5%,6%,4%,5%,5%,5%,O=C1c2[nH]cc3c2C(=NCC3)c2c(-c3ccccc3)n[nH]c21,94%,93%,93%,84%
22%,-1%,1%,-2%,16%,24%,-9%,25%,Cc1ccc(S(=O)(=O)n2ccc3c2C(=O)c2[nH]c(C(=O)c4c[nH]c5ccccc45)c(C(=O)c4c[nH]c5ccccc45)c2C3=O)cc1,82%,81%,87%,75%
20%,2%,2%,-1%,12%,28%,-8%,26%,Cc1ccc(S(=O)(=O)n2ccc3c2C(=O)c2c(-c4c[nH]c5ccccc45)cn(C)c2C3=O)cc1,97%,98%,100%,95%
28%,5%,12%,31%,23%,39%,67%,38%,Cc1ccc(S(=O)(=O)n2ccc3c2C(=O)C=C(NCCc2c[nH]c4ccccc24)C3=O)cc1,56%,69%,75%,26%
3%,-7%,5%,6%,1%,14%,27%,1%,Cc1ccc(S(=O)(=O)n2cc3c4c2C(=O)c2[nH]nc(N5C(=O)C(O)c6ccccc65)c2C4=NCC3)cc1 (centres undefined),84%,107%,104%,31%
2%,6%,8%,8%,2%,-1%,9%,0%,O=C1c2c[nH]nc2C2=NCCc3c[nH]c1c32,91%,92%,93%,90%
